Experimental data from article PMC12069340 (Frontiers in Cellular and Infection Microbiology, 2025).
Where a name gives a salt, the structure may show the parent alone. Read-outs that look alike come from different tables or passages of the source.

What was measured:
in vitro = conditions: human, Relative Viability (%)
[1] = tested on: A/PuertoRico/8/1934 (H1N1) virus; assay: microbe, parasite or virus in culture; assay type: cell-based, influenza A virus
[2] = Influenza A virus, H1N1, U-937, 48 h; read-out: NA Inhibition (%)
[3] = Influenza A virus, H1N1, U-937, 48 h, read-out: NA Inhibition (%)

NC[C@H](CC(=O)O)c1ccc(Cl)cc1 [(R)-baclofen]
viability at 20 µM (in vitro): 112% | inhibition at 20 µM [1, 2]: 46.4%

CCCC(=O)Nc1ccc(OCC(O)CNC(C)C)c(C(C)=O)c1 (centres unmarked) [Acebutolol HCl]
viability at 20 µM (in vitro): 106% | inhibition at 20 µM [1, 3]: -13.9%

CC(=O)OCC[N+](C)(C)C [Acetylcholine Chloride]
viability at 20 µM (in vitro): 104% | inhibition at 20 µM [1, 2]: -5.4%

O=C(O[C@H]1C[N+]2(CCCOc3ccccc3)CCC1CC2)C(O)(c1cccs1)c1cccs1 [Aclidinium Bromide]
viability at 20 µM (in vitro): 194% | inhibition at 20 µM [1, 2]: 13.8%

COc1ccc2cccc(CCNC(C)=O)c2c1 [Agomelatine]
viability at 20 µM (in vitro): 89.1% | inhibition at 20 µM [1, 2]: 18.4%

CN1CCC(=C2c3ccccc3CCn3c(C=O)cnc32)CC1 [Alcaftadine]
viability at 20 µM (in vitro): 188% | inhibition at 20 µM [1, 2]: -0.9%

COc1cc2nc(N(C)CCCNC(=O)C3CCCO3)nc(N)c2cc1OC (centres unmarked) [Alfuzosin HCl]
viability at 20 µM (in vitro): 110% | inhibition at 20 µM [1, 3]: -12.3%

NC12CC3CC(CC(C3)C1)C2 [Amantadine HCl]
viability at 20 µM (in vitro): 110% | inhibition at 20 µM [1, 2]: 69.2%

CCN1CCCC1CNC(=O)c1cc(S(=O)(=O)CC)c(N)cc1OC (centres unmarked) [Amisulpride]
viability at 20 µM (in vitro): 89.7% | inhibition at 20 µM [1, 2]: 6.2%

CCC1(c2cnc[nH]2)Cc2ccccc2C1 [Atipamezole]
viability at 20 µM (in vitro): 118% | inhibition at 20 µM [1, 3]: 38.2%

CC(C)NCC(O)COc1ccc(CCOCC2CC2)cc1 (centres unmarked) [Betaxolol]
viability at 20 µM (in vitro): 115% | inhibition at 20 µM [1, 3]: 6.7%

CC(C[N+](C)(C)C)OC(N)=O (centres unmarked) [Bethanechol chloride]
viability at 20 µM (in vitro): 103% | inhibition at 20 µM [1, 2]: 2.2%

O=c1ccc2ccc(OCCCCN3CCN(c4cccc5sccc45)CC3)cc2[nH]1 [Brexpiprazole]
viability at 20 µM (in vitro): 97.2% | inhibition at 20 µM [1, 2]: 54%

CN(C)CCC(c1ccc(Cl)cc1)c1ccccn1 (centres unmarked) [Chlorpheniramine Maleate]
viability at 20 µM (in vitro): 102% | inhibition at 20 µM [1, 2]: 1%

CN(C)CCCN1c2ccccc2Sc2ccc(Cl)cc21 [Chlorpromazine HCl]
viability at 20 µM (in vitro): 115% | inhibition at 20 µM [1, 2]: 53.3%

COc1ccc(C[C@@H]2c3cc(OC)c(OC)cc3CC[N@+]2(C)CCC(=O)OCCCCCOC(=O)CC[N@@+]2(C)CCc3cc(OC)c(OC)cc3[C@H]2Cc2ccc(OC)c(OC)c2)cc1OC [Cisatracurium Besylate]
viability at 20 µM (in vitro): 106% | inhibition at 20 µM [1, 3]: 27.9%

Clc1cccc(Cl)c1N=C1NCCN1 [Clonidine HCl]
viability at 20 µM (in vitro): 99.2% | inhibition at 20 µM [1, 3]: -24.1%

CN(C)CC(c1ccc(O)cc1)C1(O)CCCCC1 (centres unmarked) [Desvenlafaxine Succinate]
viability at 20 µM (in vitro): 98.8% | inhibition at 20 µM [1, 2]: 11%

Cc1cccc(Cc2c[nH]cn2)c1C [Detomidine HCl]
viability at 20 µM (in vitro): 109% | inhibition at 20 µM [1, 3]: 31.2%

Cc1cccc([C@H](C)c2cnc[nH]2)c1C [Dexmedetomidine HCl (Precedex), Dexmedetomidine HCl]
viability at 20 µM (in vitro): 120% | NA Inhibition (%) ([1]; 20 µM): -18.5%

O=C1c2c(O)cc(O)cc2O[C@H](c2cc(O)c(O)c(O)c2)[C@H]1O [Dihydromyricetin]
viability at 20 µM (in vitro): 95.3% | inhibition at 20 µM [1, 2]: 9.3%

C[N+]1(C)CCC(=C(c2ccccc2)c2ccccc2)CC1 [Diphemanil Methylsulfate]
viability at 20 µM (in vitro): 98.2% | inhibition at 20 µM [1, 2]: -0.6%

OC(CCCN1CCCCC1)(c1ccccc1)c1ccccc1 [Diphenidol HCl]
viability at 20 µM (in vitro): 125% | inhibition at 20 µM [1, 2]: 32.3%

CC(C)C(=O)Oc1ccc(CO)cc1[C@H](CCN(C(C)C)C(C)C)c1ccccc1 [Fesoterodine Fumarate]
viability at 20 µM (in vitro): 114% | inhibition at 20 µM [1, 2]: -27.7%

Cc1c(-c2ccccc2)oc2c(C(=O)OCCN3CCCCC3)cccc2c1=O [Flavoxate HCl]
viability at 20 µM (in vitro): 118% | inhibition at 20 µM [1, 2]: 8.2%

C[C@@H]1C(=O)O[C@H]2C[C@@]34[C@H]5C[C@@H](C(C)(C)C)[C@]36[C@@H](OC(=O)[C@@H]6O)O[C@@]4(C(=O)O5)[C@]21O [Ginkgolide A]
viability at 20 µM (in vitro): 109% | inhibition at 20 µM [1, 2]: 23.3%

CN[C@H]1CC[C@@H](c2ccc(Cl)c(Cl)c2)c2ccccc21 [Sertraline HCl]
viability at 20 µM (in vitro): 124%
